Data set [1] concerns HL-60 cells (human leukemia cells). The experiment in a line: Apoptosis induction in HL-60 cells, propidium iodide (Example 9). The data set is classed as cell-based. Particulars: 20 μM, incubation for 6 hours; control 9.3. Here is the method: HL-60 cells (human leukemia cells) were suspended in an RPMI-1640 with 10% fetal bovine serum added thereto, and the number of cells was counted. The suspension was adjusted to have a density of 5×10^5 cells/mL. Each 2 mL of the suspension was dispensed into Petri dishes. SBS prepared in Preparation Example 3 was diluted with dimethyl sulfoxide to 2 mM, and each 20 μL of the suspension was added thereto to have a final concentration of 20 μM. Only dimethyl sulfoxide was added to a control. Incubation was performed for 6 hours under the conditions of 37° C. and 5% CO2, and the cells were recovered, and washed with a phosphate buffered saline (PBS) by centrifugation. Four-percent paraformaldehyde was added to the cells, and the cells were allowed to stand at room temperature for 30 minutes to be fixed. After centrifugation, the supernatant was removed, and a PBS was added thereto, and the mixture was centrifuged and washed, and the cells were suspended in 200 μL of a PBS. Five-hundred microliters of 0.05 mg/mL propidium iodide was added thereto, and the mixture was incubated at 4° C. for 10 minutes. Thereafter, the number of whole cells and the number of cells which had undergone apoptosis were measured, and a ratio of induction of apoptosis was calculated according to the following equation (Table 11). […]

The nature of data set [2]: Toxicity on oral administration to mice. It counts as in vivo. Particulars: orally administered, 25 mg/mouse/day.
The test system of data set [3] is IMC carcinoma tumor cells. Kind of data set: IMC solid tumor growth in CDF1 mice, SBS orally (Example 10). The data set is classed as in vivo. Particulars: about 15.6 mg/kg/day orally in peanut oil with 10% ethanol; three weeks after transplantation of IMC. An excerpt: As ICR mice (Japan SLC, Inc.), 5-week old female mice were purchased, and the animals were used at 6 weeks old. Sarcoma-180 (hereinafter, S-180) tumor cells were transplanted into an abdominal cavity of the ICR mice to give an ascites, and the ascites was passaged by transplanting into other mice every 7 days. An ascites on day 7 after passage was collected, washed with a phosphate buffered saline by centrifugation, and suspended in the same buffer. The number of cells was counted, and the suspension was adjusted to have a density of 5×10^7 cells/mL. Into ICR mice at right abdominal part was subcutaneously transplanted 0.1 mL of the cell suspension, and the size of a solid tumor after 7 days was measured. […] The size of the tumor was measured after four weeks from transplantation of S-180. In addition, as the size of the tumor, a length and a width were measured, to obtain the volume according to the following equation, followed by comparison. […]
The tumor-suppressing activity was calculated according to the following equation. […]
As CDF1 mice (Japan SLC, Inc.), 6-week old female mice were purchased, and the animals were used at 7 weeks olds. […] The number of cells was counted. […] Seven days after transplantation, take of a tumor was confirmed, and the size of a solid tumor was measured. […]

The values below come from patent publication US20080038289A1, “Antitumor Agent” (priority 2004, published 2008).

As for `C=CC(C)(O)CC/C=C(\C)CCCC(C)(O)CCCC(C)(O)CCCC(C)(O)CCCC(C)(O)CCCC(C)(O)CCCC(C)(O)CCC=C(C)C` (stereo not shown) [SBS, hypsiziprenol A9], the “Apoptosis-Inducing Ratio (%)” value in data set [1] amounted to 30.1%. Further, the toxicity entry in data set [2] is “toxicity is not observed”. Besides, in data set [3], the “Tumor Volume (Mean ± SD)” value is reported as 534.5 ± 92.3 mm^3 and the “Tumor-Suppressing Activity (%)” value is reported as 46.2%.
